Measurements: ChEMBL document CHEMBL3508140 (2016)

Experiments:
[1] = Recovery of epirubicinol following intraperitoneal epirubicin at 4 mg.Kg-1 dose in mouse; assay type: ADME, organism-based, CD-1, Plasma; conditions: in vivo, ip
[2] = Recovery of epirubicinol following intravenous epirubicin at 4 mg.Kg-1 dose in rat; assay type: ADME, organism-based, SD, Plasma; conditions: in vivo
[3] = Recovery of epirubicinol following intraperitoneal epirubicin at 4 mg.Kg-1 dose in hamster; assay type: ADME, organism-based, Cricetulus griseus, Plasma; conditions: chinese hamster, in vivo, ip
[4] = Recovery of epirubicinol following intravenous epirubicin at 4 mg.Kg-1 dose in rabbit; assay type: ADME, organism-based, Oryctolagus cuniculus, New Zealand White, Plasma; conditions: in vivo
[5] = Recovery of epirubicinol following intravenous epirubicin at 1.5 mg.Kg-1 dose in man; assay type: ADME, organism-based, Plasma; conditions: human, in vivo
[6] = Urinary excretion of epirubicinol following epirubicin at 60-150 mg.m-2 dose in cancer patients; assay type: ADME, organism-based, Urine; conditions: human, in vivo
[7] = (§1) Urinary excretion of epirubicinol following epirubicin at 50 mg.m-2 dose in cancer patients; assay type: ADME, organism-based, Urine; conditions: human, in vivo; at 50 mg/m2
[8] = as §1; assay type: ADME, organism-based, Urine; conditions: human, in vivo; at 50 mg/m2; remark: listed apart in the source
[9] = Urinary excretion of epirubicinol following epirubicin at 60 mg.m-2 dose in cancer patients; assay type: ADME, organism-based, Urine; conditions: human, in vivo; at 60 mg/m2
[10] = Urinary excretion of epirubicinol following epirubicin at 75-90 mg.m-2 dose in cancer patients; assay type: ADME, organism-based, Urine; conditions: human, in vivo
[11] = Biliary excretion of epirubicinol following epirubicin at 50 mg.m-2 dose in cancer patients; assay type: ADME, organism-based, Bile; conditions: human, in vivo; at 50 mg/m2
[12] = Detection of epirubicinol in plasma following single intravenous epirubicin at 10 mg.Kg-1 dose in female mouse bearing colon tumor; assay type: ADME, organism-based, BALB/c; conditions: in vivo
[13] = Detection of epirubicinol in heart following single intravenous epirubicin at 10 mg.Kg-1 dose in female mouse bearing colon tumor; assay type: ADME, organism-based, BALB/c; conditions: in vivo
[14] = Detection of epirubicinol in tumor following single intravenous epirubicin at 10 mg.Kg-1 dose in female mouse bearing colon tumor; assay type: ADME, organism-based, BALB/c, Neoplasm; conditions: in vivo
[15] = AUC values (0-48 h) of epirubicinol in plasma following single intravenous epirubicin at 10 mg.Kg-1 dose in female mouse bearing colon tumor; assay type: ADME, organism-based, BALB/c; conditions: in vivo
[16] = AUC values (0-48 h) of epirubicinol in heart following single intravenous epirubicin at 10 mg.Kg-1 dose in female mouse bearing colon tumor; assay type: ADME, organism-based, BALB/c; conditions: in vivo
[17] = AUC values (0-48 h) of epirubicinol in tumor following single intravenous epirubicin at 10 mg.Kg-1 dose in female mouse bearing colon tumor; assay type: ADME, organism-based, BALB/c, Neoplasm; conditions: in vivo
[18] = (§2) Urinary elimination of 4'-epiadriamycinol following intravenous bolus 4'-epiadriamycin at 10 mg.Kg-1 dose in rat; assay type: ADME, organism-based, SD, Urine; conditions: in vivo
[19] = as §2; assay type: ADME, organism-based, SD, Urine; conditions: in vivo; remark: listed apart in the source
[20] = as §2; assay type: ADME, organism-based, SD, Urine; conditions: in vivo; remark: listed apart in the source
[21] = AUC(0-24 h) of epirubicinol following intravenous epirubicin at 1 mg.Kg-1 dose in rabbit; assay type: ADME, organism-based, Oryctolagus cuniculus, New Zealand White, Plasma; conditions: in vivo
[22] = AUC(0-24 h) of epirubicinol following intravenous epirubicin at 3 mg.Kg-1 dose in rabbit; assay type: ADME, organism-based, Oryctolagus cuniculus, New Zealand White, Plasma; conditions: in vivo
[23] = Recovery of epirubicinol-glucuronide following intraperitoneal epirubicin at 4 mg.Kg-1 dose in mouse; assay type: ADME, organism-based, CD-1, Plasma; conditions: in vivo, ip
[24] = Recovery of epirubicin-glucuronide following intraperitoneal epirubicin at 4 mg.Kg-1 dose in mouse; assay type: ADME, organism-based, CD-1, Plasma; conditions: in vivo, ip
[25] = Recovery of epirubicinol-glucuronide following intravenous epirubicin at 4 mg.Kg-1 dose in rat; assay type: ADME, organism-based, SD, Plasma; conditions: in vivo
[26] = Recovery of epirubicin-glucuronide following intravenous epirubicin at 4 mg.Kg-1 dose in rat; assay type: ADME, organism-based, SD, Plasma; conditions: in vivo
[27] = Recovery of epirubicinol-glucuronide following intraperitoneal epirubicin at 4 mg.Kg-1 dose in hamster; assay type: ADME, organism-based, Cricetulus griseus, Plasma; conditions: chinese hamster, in vivo, ip
[28] = Recovery of epirubicin-glucuronide following intraperitoneal epirubicin at 4 mg.Kg-1 dose in hamster; assay type: ADME, organism-based, Cricetulus griseus, Plasma; conditions: chinese hamster, in vivo, ip
[29] = Recovery of epirubicinol-glucuronide following intravenous epirubicin at 4 mg.Kg-1 dose in rabbit; assay type: ADME, organism-based, Oryctolagus cuniculus, New Zealand White, Plasma; conditions: in vivo
[30] = Recovery of epirubicin-glucuronide following intravenous epirubicin at 4 mg.Kg-1 dose in rabbit; assay type: ADME, organism-based, Oryctolagus cuniculus, New Zealand White, Plasma; conditions: in vivo
[31] = Recovery of epirubicinol-glucuronide following intravenous epirubicin at 1.5 mg.Kg-1 dose in man; assay type: ADME, organism-based, Plasma; conditions: human, in vivo
[32] = Recovery of epirubicin-glucuronide following intravenous epirubicin at 1.5 mg.Kg-1 dose in man; assay type: ADME, organism-based, Plasma; conditions: human, in vivo
[33] = Urinary excretion of epirubicin glucuronide following epirubicin at 60-150 mg.m-2 dose in cancer patients; assay type: ADME, organism-based, Urine; conditions: human, in vivo
[34] = Urinary excretion of epirubicinol glucuronide following epirubicin at 60-150 mg.m-2 dose in cancer patients; assay type: ADME, organism-based, Urine; conditions: human, in vivo
[35] = (§3) Urinary excretion of epirubicin glucuronide following epirubicin at 50 mg.m-2 dose in cancer patients; assay type: ADME, organism-based, Urine; conditions: human, in vivo; at 50 mg/m2
[36] = (§4) Urinary excretion of epirubicinol glucuronide following epirubicin at 50 mg.m-2 dose in cancer patients; assay type: ADME, organism-based, Urine; conditions: human, in vivo; at 50 mg/m2
[37] = as §3; assay type: ADME, organism-based, Urine; conditions: human, in vivo; at 50 mg/m2; remark: listed apart in the source
[38] = as §4; assay type: ADME, organism-based, Urine; conditions: human, in vivo; at 50 mg/m2; remark: listed apart in the source
[39] = Urinary excretion of epirubicin glucuronide following epirubicin at 60 mg.m-2 dose in cancer patients; assay type: ADME, organism-based, Urine; conditions: human, in vivo; at 60 mg/m2
[40] = Urinary excretion of epirubicinol glucuronide following epirubicin at 60 mg.m-2 dose in cancer patients; assay type: ADME, organism-based, Urine; conditions: human, in vivo; at 60 mg/m2
[41] = Urinary excretion of epirubicin glucuronide following epirubicin at 75-90 mg.m-2 dose in cancer patients; assay type: ADME, organism-based, Urine; conditions: human, in vivo
[42] = Urinary excretion of epirubicinol glucuronide following epirubicin at 75-90 mg.m-2 dose in cancer patients; assay type: ADME, organism-based, Urine; conditions: human, in vivo
[43] = Biliary excretion of epirubicin glucuronide following epirubicin at 50 mg.m-2 dose in cancer patients; assay type: ADME, organism-based, Bile; conditions: human, in vivo; at 50 mg/m2
[44] = Biliary excretion of epirubicinol glucuronide following epirubicin at 50 mg.m-2 dose in cancer patients; assay type: ADME, organism-based, Bile; conditions: human, in vivo; at 50 mg/m2
[45] = (§5) Terminal half-life of epirubicin-glucuronide following intravenous epirubicin at 1 mg.Kg-1 dose in rabbit; assay type: ADME, organism-based, Oryctolagus cuniculus, New Zealand White, Plasma; conditions: in vivo
[46] = (§6) Terminal half-life of epirubicin-glucuronide following intravenous epirubicin at 3 mg.Kg-1 dose in rabbit; assay type: ADME, organism-based, Oryctolagus cuniculus, New Zealand White, Plasma; conditions: in vivo
[47] = as §5; assay type: ADME, organism-based, Oryctolagus cuniculus, New Zealand White, Plasma; conditions: in vivo; remark: listed apart in the source
[48] = as §6; assay type: ADME, organism-based, Oryctolagus cuniculus, New Zealand White, Plasma; conditions: in vivo; remark: listed apart in the source
[49] = AUC(0-2 h) of epirubicin-glucuronide following intravenous epirubicin at 1 mg.Kg-1 dose in rabbit; assay type: ADME, organism-based, Oryctolagus cuniculus, New Zealand White, Plasma; conditions: in vivo
[50] = AUC(0-2 h) of epirubicin-glucuronide following intravenous epirubicin at 3 mg.Kg-1 dose in rabbit; assay type: ADME, organism-based, Oryctolagus cuniculus, New Zealand White, Plasma; conditions: in vivo
[51] = Terminal half-life of epirubicinol-glucuronide following intravenous epirubicin at 1 mg.Kg-1 dose in rabbit; assay type: ADME, organism-based, Oryctolagus cuniculus, New Zealand White, Plasma; conditions: in vivo
[52] = Terminal half-life of epirubicinol-glucuronide following intravenous epirubicin at 3 mg.Kg-1 dose in rabbit; assay type: ADME, organism-based, Oryctolagus cuniculus, New Zealand White, Plasma; conditions: in vivo
[53] = AUC(0-2 h) of epirubicinol-glucuronide following intravenous epirubicin at 1 mg.Kg-1 dose in rabbit; assay type: ADME, organism-based, Oryctolagus cuniculus, New Zealand White, Plasma; conditions: in vivo
[54] = AUC(0-2 h) of epirubicinol-glucuronide following intravenous epirubicin at 3 mg.Kg-1 dose in rabbit; assay type: ADME, organism-based, Oryctolagus cuniculus, New Zealand White, Plasma; conditions: in vivo

Compound: COc1cccc2c1C(=O)c1c(O)c3c(c(O)c1C2=O)C[C@@](O)(C(O)CO)C[C@@H]3O[C@H]1C[C@H](N)[C@@H](O)[C@H](C)O1 (some centres undefined)
- Compound recovery [1]: 0.2 10^-9M
- Compound recovery [2]: 0.4 10^-9M
- Compound recovery [3]: 3.3 10^-9M
- Compound recovery [4]: 23 10^-9M
- Compound recovery [5]: 15 10^-9M
- Compound recovery [6]: 0.5%
- Compound recovery [7]: 4.1%
- Compound recovery [8]: 0.6%
- Compound recovery [9]: 0.9%
- Compound recovery [10]: 0.8%
- Compound recovery [11]: 6.5%
- Compound recovery [12]: OUTCOME = Observed
- Compound recovery [13]: OUTCOME = Observed
- Compound recovery [14]: OUTCOME = Not detected/not observed
- AUC [15]: 0.5 nmol·min/mL
- AUC [16]: 46 nmol·min/g
- AUC [17]: 0 nmol·min/g
- Compound recovery [18]: 0.024%
- Compound recovery [19]: 0.03%
- Compound recovery [20]: 0.044%
- AUC [21]: 69.46 ng·h/mL
- AUC [22]: 204.86 ng·h/mL

Compound: COc1cccc2c1C(=O)c1c(O)c3c(c(O)c1C2=O)C[C@@](O)(C(=O)CO)C[C@@H]3O[C@H]1C[C@H](N)[C@@H](O[C@@H]2O[C@H](C(=O)O)[C@@H](O)[C@H](O)[C@H]2O)[C@H](C)O1
- Compound recovery [23]: 0 10^-9M
- Compound recovery [24]: 0 10^-9M
- Compound recovery [25]: 0 10^-9M
- Compound recovery [26]: 0 10^-9M
- Compound recovery [27]: 0 10^-9M
- Compound recovery [28]: 0 10^-9M
- Compound recovery [29]: 0.5 10^-9M
- Compound recovery [30]: 1.7 10^-9M
- Compound recovery [31]: 90 10^-9M
- Compound recovery [32]: 460 10^-9M
- Compound recovery [33]: 1.3%
- Compound recovery [34]: 0.3%
- Compound recovery [35]: 4.6%
- Compound recovery [36]: 1.7%
- Compound recovery [37]: 3.3%
- Compound recovery [38]: 0.4%
- Compound recovery [39]: 3.2%
- Compound recovery [40]: 0.8%
- Compound recovery [41]: 3.2%
- Compound recovery [42]: 0.8%
- Compound recovery [43]: 4.6%
- Compound recovery [44]: 1.9%
- t1/2 [45]: 9 min
- t1/2 [46]: OUTCOME = Not calculated
- t1/2 [47]: 61.2 min
- t1/2 [48]: 29.4 min
- AUC [49]: 7.64 ng·h/mL
- AUC [50]: 15.83 ng·h/mL
- t1/2 [51]: 12.6 min
- t1/2 [52]: 23.4 min
- AUC [53]: 1.47 ng·h/mL
- AUC [54]: 4.01 ng·h/mL
